Literature values, collected in patent US20230106731A1, “INHIBITORS OF MUTANT FAMILY TYROSINE-KINASES” (Spectrum Pharmaceuticals, Inc., priority 2017, published 2023).

How the values were obtained:
EGFR/HER2 exon 20 mutant = EGFR/HER2 exon 20 mutant patients
[1] = test system: EGFR exon 20 driven NSCLC

Compound | activity in patients (EGFR/HER2 exon 20 mutant) | activity in patient derived xenograft model [1]
CCOc1cc2ncc(C#N)c(Nc3ccc(OCc4ccccn4)c(Cl)c3)c2cc1NC(=O)/C=C/CN(C)C [neratinib] | limited activity | –
CS(=O)(=O)CCNCc1ccc(-c2ccc3ncnc(Nc4ccc(OCc5cccc(F)c5)c(Cl)c4)c3c2)o1 [lapatinib] | limited activity | –
C=CC(=O)Nc1cc(Nc2nccc(-c3cn(C)c4ccccc34)n2)c(OC)cc1N(C)CCN(C)C [osimertinib] | – | minimal activity
